Results from patent publication US20130059920A1, “HYDROXYTYROSOL BENEFITS MUSCLE DIFFERENTIATION AND MUSCLE CONTRACTION AND RELAXATION” (DSM IP ASSETS, B.V., priority 2009, published 2013).

Legend:
[1] = Endurance capacity, treadmill running to exhaustion after 8 weeks long-term exercise (LTE); format: in vivo, Sprague-Dawley rats; conditions: exercise (LTE) rats, 25 mg/kg/day by gavage
Experimental: Sprague-Dawley male rats were purchased from a commercial breeder (SLAC, Shanghai). The rats were housed in a temperature—(22-28° C.) and humidity—(60%) controlled animal room and maintained on a 12-h light/12-h dark cycle (light on from 08:00 a.m. to 08:00 p.m.) with free access to food and water throughout the experiments. […] rats weighing 180-200 g were used. At the beginning of experiments, male rats were selected by one week running exercise at low speed (10 m/min, 20 min/day) and those high exercise activity rats were chosen for the experiments. Rats were randomly divided into four groups: Sedentary, Sedentary with HT supplement (25 mg/kg/day), Endurance exercise and Endurance exercise with HT supplement (25 mg/kg/day). HT was administrated by gavage 45 min before exercise program for each animal. Rats were run on a motorized treadmill at a speed of 20 m/min and a grade of 5° for 1 hour per day and 6 days per week. After 8 weeks exercise, endurance capacity was measured by treadmill running to exhaustion at a speed of 30 m/min and a grade of 5°. Exhaustion was defined as the inability to maintain running and avoid sound and light irritation.

[2] = GSH and MDA in LTE rats; format: in vivo, Sprague-Dawley rats; conditions: 25 mg/kg/day, data not shown
[3] = test system: genes of calcium signaling and flux; test: Gene chip analysis of human skeletal muscle biopsies (vastus lateralis), Human Genome U133 Plus 2.0; format: in vivo; conditions: 6 weeks, human muscle biopsy
Experimental: Three groups each n=20 were enrolled in the study. The group assignment was randomly done by subject weight across the 3 groups. Each subject received a total of 3 capsules each day over a period of 6 weeks: • Group 1—Placebo: 3 capsules with each 333 mg of modified starch • Group 2—LOW (50 mg/d hydroxytyrosol): 1 capsule with 333 mg investigational product (1 capsule with 50 mg hydroxytyrosol) and 2 capsules with each 333 mg modified starch • Group 3—HIGH (150 mg/d hydroxytyrosol): 3 capsules with each 333mg investigational product ([…])
Muscle biopsy was performed at 2 h after ingestion of the supplements as it had taken 30 min setup time before the tissue can be removed. Two skeletal muscle tissue biopsies were taken at beginning (day 1, baseline sample) of the study and at day 42. The following was assessed in skeletal muscle tissue: 1) global gene expression profile and 2) cellular factors in tissue involved in energy metabolism or other specific pathways.
A muscle biopsy (100 mg) was taken from the vastus lateralis, a thigh muscle.
The skin was cleaned with 10% povidone-iodine (Betadine Solution, Purdue Pharma L.P., Stamford, Conn.) and then anesthetized by injecting 1.5 cc of 1% Lidocaine-HCL into the skin. A 5-8 mm incision was made in the skin and subcutaneous fat, and then approximately 100 mg of muscle tissue was removed using a Bergstrom biopsy needle from the thigh musculature (Dyna Medical, London, Ont. Canada).
The biopsy was trimmed of adipose and connective tissue, weighted and separated into 25 mg and 75 mg, placed into labelled and cooled cryotubes and immediately frozen in liquid nitrogen. Samples are stored at −80° C. for subsequent analysis. The incision site will be sealed using butterfly bandages, then wrapped with a pressure pack to minimize bruising. Approximately 25 mg of muscle tissue was used to determine the effect of the olive product on the gene expression profile involved in the energy metabolism. Neither the Sponsor nor the investigator has performed genetic finger printing and has destroyed any remaining tissue after their testing has been completed.
RNA extraction from frozen tissue samples (skeletal muscle biopsies) as described above was done using Trizol method as followed:
RNA was processed using the 3′IVT Express Kit (Affymetrix, Cat. No. 901229) according to the manual.
Fragmented aRNA for each sample was hybridized onto a Human Genome U133 Plus 2.0 Gene Chip (Affymetrix, Cat. No. 900467).
All CEL files from Affymetrix were uploaded into the analysis software (Partek) using GCRMA. GCRMA is a method of converting CEL files into expression set using the Robust Multi-array Average (RMA) with the help of probe sequence and with GC-content background correction. It is a method for normalizing and summarizing probe-level intensity measurements from Affymetrix GeneChips. Three steps: Background correction, normalization, summarization.
After GCRMA preprocessing of the .CEL files, we exported the log 2-transformed expression values from Partek and imported them into the R statistics software (version 2.9.2, http://www.R-project.org). The 57 subjects for which both a pre- and a post-measurement was available were included in the analysis. We applied an ANCOVA (analysis of covariance) with the baseline measurement as covariate to each of the 54675 probesets. The aim was to compare the treatment effect between the groups, while adjusting for the individual baselines which might differ between subjects. The treatment effect between groups can thus be estimated more precisely since the subject-to-subject variability can be separated from the within-subject variability. The baseline and the end-measurements correlated well with each other within the subjects. […]

OCCc1ccc(O)c(O)c1 [hydroxytyrosol, 3,4-dihydroxyphenylethanol]
improvement of endurance capacity [1]: 35% | GSH [2]: no effect | MDA [2]: no effect | baseline-corrected fold-change vs placebo: ATPase, Ca++ transporting, cardiac muscle, fast twitch 1 ([3]; 50 mg HT/d): 1.11 | baseline-corrected fold-change vs placebo: ATPase, Ca++ transporting, plasma membrane 2 ([3]; 50 mg HT/d): 1.06 | baseline-corrected fold-change vs placebo: ATPase, Ca++ transporting, plasma membrane 4 ([3]; 50 mg HT/d): 1.10 | baseline-corrected fold-change vs placebo: ATPase, Ca++ transporting, type 2C, member 1 ([3]; 50 mg HT/d): 1.07 | baseline-corrected fold-change vs placebo: C2 calcium-dependent domain containing 3 ([3]; 50 mg HT/d): 1.13 | baseline-corrected fold-change vs placebo: EF-hand calcium binding domain 2 ([3]; 50 mg HT/d): 1.09 | baseline-corrected fold-change vs placebo: EF-hand calcium binding domain 7 ([3]; 50 mg HT/d): 1.00 | baseline-corrected fold-change vs placebo: S100 calcium binding protein A4 ([3]; 50 mg HT/d): 1.07 | baseline-corrected fold-change vs placebo: S100 calcium binding protein A8 ([3]; 50 mg HT/d): 1.08 | baseline-corrected fold-change vs placebo: S100 calcium binding protein A10 ([3]; 50 mg HT/d): 1.06 | baseline-corrected fold-change vs placebo: S100 calcium binding protein A13 ([3]; 50 mg HT/d): 1.05 | baseline-corrected fold-change vs placebo: S100 calcium binding protein B ([3]; 50 mg HT/d): 1.05 | baseline-corrected fold-change vs placebo: annexin A1 ([3]; 50 mg HT/d): 1.11 | baseline-corrected fold-change vs placebo: annexin A2 ([3]; 50 mg HT/d): 1.13 | baseline-corrected fold-change vs placebo: annexin A2 pseudogene 2 ([3]; 50 mg HT/d): 1.09 | baseline-corrected fold-change vs placebo: annexin A6 ([3]; 50 mg HT/d): 1.06 | baseline-corrected fold-change vs placebo: annexin A11 ([3]; 50 mg HT/d): 1.04 | baseline-corrected fold-change vs placebo: cadherin, EGF LAG seven-pass G-type receptor 2 (flamingo homolog, Drosophila) ([3]; 50 mg HT/d): 1.08 | baseline-corrected fold-change vs placebo: calbindin 2 ([3]; 50 mg HT/d): 1.06 | baseline-corrected fold-change vs placebo: calcineurin-like phosphoesterase domain containing 1 ([3]; 50 mg HT/d): 1.11 | baseline-corrected fold-change vs placebo: calcium and integrin binding family member 2 ([3]; 50 mg HT/d): 0.98 | baseline-corrected fold-change vs placebo: calcium binding protein 4 ([3]; 50 mg HT/d): 1.07 | baseline-corrected fold-change vs placebo: calcium binding protein 39 ([3]; 50 mg HT/d): 1.07 | baseline-corrected fold-change vs placebo: calcium channel, voltage-dependent, L type, alpha 1S subunit ([3]; 50 mg HT/d): 1.03 | baseline-corrected fold-change vs placebo: calcium channel, voltage-dependent, beta 1 subunit ([3]; 50 mg HT/d): 1.02 | baseline-corrected fold-change vs placebo: calcium channel, voltage-dependent, gamma subunit 1 ([3]; 50 mg HT/d): 1.03 | baseline-corrected fold-change vs placebo: calcium channel, voltage-dependent, gamma subunit 6 ([3]; 50 mg HT/d): 1.06 | baseline-corrected fold-change vs placebo: calcium/calmodulin-dependent protein kinase II delta ([3]; 50 mg HT/d): 1.09 | baseline-corrected fold-change vs placebo: calcium/calmodulin-dependent protein kinase kinase 2, beta ([3]; 50 mg HT/d): 1.11 | baseline-corrected fold-change vs placebo: calmodulin 1 (phosphorylase kinase, delta) ([3]; 50 mg HT/d): 1.14 | baseline-corrected fold-change vs placebo: calmodulin 3 (phosphorylase kinase, delta) ([3]; 50 mg HT/d): 1.09 | baseline-corrected fold-change vs placebo: calmodulin regulated spectrin-associated protein 1 ([3]; 50 mg HT/d): 1.04 | baseline-corrected fold-change vs placebo: calnexin ([3]; 50 mg HT/d): 0.98 | baseline-corrected fold-change vs placebo: calpain 2, (m/II) large subunit ([3]; 50 mg HT/d): 1.04 | baseline-corrected fold-change vs placebo: calpain 3, (p94) ([3]; 50 mg HT/d): 0.99 | baseline-corrected fold-change vs placebo: calreticulin ([3]; 50 mg HT/d): 1.06 | baseline-corrected fold-change vs placebo: protein phosphatase 3, catalytic subunit, alpha isozyme ([3]; 50 mg HT/d): 1.09 | baseline-corrected fold-change vs placebo: regulator of calcineurin 1 ([3]; 50 mg HT/d): 1.07 | baseline-corrected fold-change vs placebo: ryanodine receptor 3 ([3]; 50 mg HT/d): 1.23 | baseline-corrected fold-change vs placebo: striatin, calmodulin binding protein 3 ([3]; 50 mg HT/d): 1.13 | baseline-corrected fold-change vs placebo: ATPase, Ca++ transporting, cardiac muscle, fast twitch 1 ([3]; 150 mg HT/d): 1.196 | baseline-corrected fold-change vs placebo: ATPase, Ca++ transporting, plasma membrane 2 ([3]; 150 mg HT/d): 1.174 | baseline-corrected fold-change vs placebo: ATPase, Ca++ transporting, plasma membrane 4 ([3]; 150 mg HT/d): 1.023 | baseline-corrected fold-change vs placebo: ATPase, Ca++ transporting, type 2C, member 1 ([3]; 150 mg HT/d): 1.080 | baseline-corrected fold-change vs placebo: C2 calcium-dependent domain containing 3 ([3]; 150 mg HT/d): 1.078 | baseline-corrected fold-change vs placebo: EF-hand calcium binding domain 2 ([3]; 150 mg HT/d): 1.080 | baseline-corrected fold-change vs placebo: EF-hand calcium binding domain 7 ([3]; 150 mg HT/d): 1.075 | baseline-corrected fold-change vs placebo: S100 calcium binding protein A4 ([3]; 150 mg HT/d): 1.114 | baseline-corrected fold-change vs placebo: S100 calcium binding protein A8 ([3]; 150 mg HT/d): 1.056 | baseline-corrected fold-change vs placebo: S100 calcium binding protein A10 ([3]; 150 mg HT/d): 1.045 | baseline-corrected fold-change vs placebo: S100 calcium binding protein A13 ([3]; 150 mg HT/d): 1.064 | baseline-corrected fold-change vs placebo: S100 calcium binding protein B ([3]; 150 mg HT/d): 1.019 | baseline-corrected fold-change vs placebo: annexin A1 ([3]; 150 mg HT/d): 1.070 | baseline-corrected fold-change vs placebo: annexin A2 ([3]; 150 mg HT/d): 1.047 | baseline-corrected fold-change vs placebo: annexin A2 pseudogene 2 ([3]; 150 mg HT/d): 1.007 | baseline-corrected fold-change vs placebo: annexin A6 ([3]; 150 mg HT/d): 1.062 | baseline-corrected fold-change vs placebo: annexin A11 ([3]; 150 mg HT/d): 1.065 | baseline-corrected fold-change vs placebo: cadherin, EGF LAG seven-pass G-type receptor 2 (flamingo homolog, Drosophila) ([3]; 150 mg HT/d): 1.030 | baseline-corrected fold-change vs placebo: calbindin 2 ([3]; 150 mg HT/d): 1.006 | baseline-corrected fold-change vs placebo: calcineurin-like phosphoesterase domain containing 1 ([3]; 150 mg HT/d): 1.070 | baseline-corrected fold-change vs placebo: calcium and integrin binding family member 2 ([3]; 150 mg HT/d): 1.114 | baseline-corrected fold-change vs placebo: calcium binding protein 4 ([3]; 150 mg HT/d): 1.024 | baseline-corrected fold-change vs placebo: calcium binding protein 39 ([3]; 150 mg HT/d): 1.082 | baseline-corrected fold-change vs placebo: calcium channel, voltage-dependent, L type, alpha 1S subunit ([3]; 150 mg HT/d): 1.080 | baseline-corrected fold-change vs placebo: calcium channel, voltage-dependent, beta 1 subunit ([3]; 150 mg HT/d): 1.125 | baseline-corrected fold-change vs placebo: calcium channel, voltage-dependent, gamma subunit 1 ([3]; 150 mg HT/d): 1.087 | baseline-corrected fold-change vs placebo: calcium channel, voltage-dependent, gamma subunit 6 ([3]; 150 mg HT/d): 1.178 | baseline-corrected fold-change vs placebo: calcium/calmodulin-dependent protein kinase II delta ([3]; 150 mg HT/d): 1.113 | baseline-corrected fold-change vs placebo: calcium/calmodulin-dependent protein kinase kinase 2, beta ([3]; 150 mg HT/d): 1.033 | baseline-corrected fold-change vs placebo: calmodulin 1 (phosphorylase kinase, delta) ([3]; 150 mg HT/d): 1.153 | baseline-corrected fold-change vs placebo: calmodulin 3 (phosphorylase kinase, delta) ([3]; 150 mg HT/d): 1.041 | baseline-corrected fold-change vs placebo: calmodulin regulated spectrin-associated protein 1 ([3]; 150 mg HT/d): 1.089 | baseline-corrected fold-change vs placebo: calnexin ([3]; 150 mg HT/d): 1.066 | baseline-corrected fold-change vs placebo: calpain 2, (m/II) large subunit ([3]; 150 mg HT/d): 1.053 | baseline-corrected fold-change vs placebo: calpain 3, (p94) ([3]; 150 mg HT/d): 1.082 | baseline-corrected fold-change vs placebo: calreticulin ([3]; 150 mg HT/d): 1.044 | baseline-corrected fold-change vs placebo: protein phosphatase 3, catalytic subunit, alpha isozyme ([3]; 150 mg HT/d): 1.048 | baseline-corrected fold-change vs placebo: regulator of calcineurin 1 ([3]; 150 mg HT/d): 1.009 | baseline-corrected fold-change vs placebo: ryanodine receptor 3 ([3]; 150 mg HT/d): 1.355 | baseline-corrected fold-change vs placebo: striatin, calmodulin binding protein 3 ([3]; 150 mg HT/d): 1.024
